Reference: patent US9636365B2, “Antibacterial food composition” (NUTRIVERCELL, priority 2009, dated 2017)
Read-outs that look alike come from different tables or passages of the source.

Key:
[1] = tested on: E. coli strain secreting BLSE, NEC118564; experiment: MIC, dilution in liquid medium (CA-SFM), second BLSE strain; type: cell-based, Escherichia coli; conditions: added composition at sub-inhibitory concentration (120 or 250 mg/L), 18 h, 37° C.
Excerpt: (§1) Six strains of Escherichia coli of different origins (cystitises, acute pyelonephritises, urinary chronic carriage), of different sensitivities to the main antibiotics customarily used in urinary infections and with different virulences, were selected from the strain library of the laboratory of the INSERM Espri 26 team: • 2 strains sensitive to ATBs: NECS892841 and NECS30090 • 2 strains resistant to quinolones: NECS858785 and NECS864598 • 2 strains secreting BLSE: NEC892420 and NEC118564
(§2) Three compositions were evaluated: • a composition comprising propolis powder on maltose dextrin • a composition comprising propolis powder on maltose dextrin and PACs of type A • a composition comprising maltose dextrin
(§3) Three antibiotics were studied: • ofloxacin • ceftriaxone • cefixime
(§4) The whole of the tubes were put into an oven at 37° C. overnight without stirring.

[2] = tested on: E. coli strain sensitive to ATBs (S), NECS892841; experiment: MIC, dilution in liquid medium (CA-SFM), first S strain; type: cell-based, Escherichia coli; conditions: added composition at sub-inhibitory concentration (120 or 250 mg/L), 18 h, 37° C.
Excerpt: as §1, §2, §3, §4

[3] = tested on: E. coli strain resistant to quinolones (OFX R), NECS858785; experiment: MIC, dilution in liquid medium (CA-SFM), first OFX R strain; type: cell-based, Escherichia coli; conditions: added composition at sub-inhibitory concentration (120 or 250 mg/L), 18 h, 37° C.
Excerpt: as §1, §2, §3, §4

[4] = tested on: E. coli strain resistant to quinolones (OFX R), NECS864598; experiment: MIC, dilution in liquid medium (CA-SFM), second OFX R strain; type: cell-based, Escherichia coli; conditions: added composition at sub-inhibitory concentration (120 or 250 mg/L), 18 h, 37° C.
Excerpt: as §1, §2, §3, §4

[5] = tested on: E. coli strain secreting BLSE, NEC892420; experiment: MIC, dilution in liquid medium (CA-SFM), first BLSE strain; type: cell-based, Escherichia coli; conditions: added composition at sub-inhibitory concentration (120 or 250 mg/L), 18 h, 37° C.
Excerpt: as §1, §2, §3, §4

[6] = tested on: E. coli strain sensitive to ATBs (S), NECS30090; experiment: MIC, dilution in liquid medium (CA-SFM), second S strain; type: cell-based, Escherichia coli; conditions: second S strain row; added composition at sub-inhibitory concentration (120 or 250 mg/L); 18 h, 37° C.
Excerpt: as §1, §2, §3, §4

[7] = Quantification of propolis polyphenols in human urines after ingesting the composition; type: in vivo
Method: Two healthy volunteers of more than 18 years of age, with efficient contraception and having followed a normal diet, followed a regimen comprising the ingestion of gelatin capsules according to the composition of Example 3.
Two regimens were followed: • taking 6 gelatin capsules, • taking 8 gelatin capsules.
The taking of gelatin capsules was carried out at 8.00 am and the urines were collected by micturition in a sterile flask before ingestion, 1-6 hours after ingestion, 12 hours after ingestion and 24 hours after ingestion.
The collected urines are hydrolyzed by enzymatic hydrolysis (glucuronidase and sulfatase), and the polyphenols are then extracted and purified on Sep-Pack.
The polyphenols of propolis such as pinocembrin and galangin are then characterized and assayed.

Structure (SMILES)	MIC of the antibiotic [1]	MIC of the antibiotic [2]	MIC of the antibiotic [3]	MIC of the antibiotic [4]	MIC of the antibiotic [5]	MIC of the antibiotic [6]	amount in human urines ([7]; 1-6 h after ingestion of 6 gelatin capsules of Example 3, urine hydrolyzed)	concentration at 12 h ([7]; human, in vivo, 12 h after ingestion of 6 gelatin capsules of Example 3, read-out: amount in human urines)	concentration at 24 h ([7]; human, in vivo, 24 h after ingestion of 6 gelatin capsules of Example 3, read-out: amount in human urines)	concentration at 24 h ([7]; human, in vivo, 24 h after ingestion of 8 gelatin capsules of Example 3, read-out: amount in human urines)	amount in human urines ([7]; human, in vivo)	concentration at 12 h ([7]; human, in vivo, amount in human urines)
C=CC1=C(C(=O)O)N2C(=O)[C@@H](NC(=O)/C(=N\OCC(=O)O)c3csc(N)n3)[C@H]2SC1 [Cefixime, cefixime]	8 µg/mL	1 µg/mL	0.5 µg/mL	1 µg/mL	16 µg/mL	0.5 µg/mL						
CO/N=C(\C(=O)N[C@@H]1C(=O)N2C(C(=O)O)=C(CSc3nc(=O)c(O)nn3C)CS[C@H]12)c1csc(N)n1 [Ceftriaxon, ceftriaxone]	32 µg/mL	1 µg/mL	0.25 µg/mL	0.5 µg/mL	>32 µg/mL	0.5 µg/mL						
O=c1c(O)c(-c2ccccc2)oc2cc(O)cc(O)c12 [Galangin, galangin]							0.555 mg/L	291 ng/mL	157 ng/mL	311 ng/mL		
CC1COc2c(N3CCN(C)CC3)c(F)cc3c(=O)c(C(=O)O)cn1c23 (stereo not drawn) [Ofloxacin, ofloxacin]	>32 µg/mL	1 µg/mL	2 µg/mL	32 µg/mL	>32 µg/mL	0.25 µg/mL						
O=C1C[C@@H](c2ccccc2)Oc2cc(O)cc(O)c21 [Pinocembrin, pinocembrin]											3.344 mg/L	1140 ng/mL
